In article PMC12005989, “Purification, identification, and in silico screening of a multifunctional octapeptide from semen armeniacae glutelin-2 hydrolysates: restraining mechanisms to Keap1 and ACE, stability, and ferrous-transport efficiency” (Frontiers in Nutrition, 2025):
Read-outs that look alike come from different tables or passages of the source. Values belong to the compound of their own block, whether it stands above or below them. Ends that are not written are not given here.

Columns and labels:
[1] = ABTS+ radical quenching, potassium persulfate method; settings: 100 μg/mL; mean ± SD, triplicate
Method: (§1) The free radical quenching ability of samples, including superoxide, 2,2′-hydrazine-bis (3-ethylbenzothiazolin-6-sulfonic acid) diamine salt cation (ABTS^+), and hydroxyl radicals, was determined using the pyrogallol auto-oxidation, potassium persulfate, and β-deoxyribose oxidation methods, according to the same procedures from Tyagi et al. ([6]), Lin et al. ([2]), and Wang et al. ([35]), respectively. Comparison was conducted when the samples were replaced by glutathione (0.1 mg/mL).
As described by Wu et al. ([41]), the simulative gastric digestive fluid consisted of sodium chloride (0.18 mol/L), ultrapure water (180 mL), and 0.40 mg/mL of pepsin. The simulation intestinal digestive juice was composed of NaHCO3 (0.625 g/mL), bile salt (3 g/100 mL), pancreatin (0.35 mg/mL), and 180 mL ultrapure water. In a glass triangle flask, 300 mg of the antihypertensive and antioxidant BAG-2H peptides, 60 mL of ultrapure water, and 150 mL of the simulative gastric fluid were mixed thoroughly. The flask was placed at 37°C in an EDZF-C002 thermostatic vibrator with shaking rate of 140 rpm. After 90 min, 180 mL of the simulative intestinal hydrolysis fluid was added and stirred at 37°C for 2 h. […] The ACE inhibition capacity and antioxidant ability of the treated BAG-2H peptides were detected and compared to those of the undigested BAG-2H peptides.

[2] = Ferric reducing ability, Prussian blue method; settings: 100 μg/mL, pH 6.8 phosphate buffer, determined at 700 nm, mean ± SD, triplicate
Method: Ferric reducing ability was defined as the ability of antioxidants to provide protons, which was administrated according to the Prussian blue method ([2]). A total 1 mL of BAG-2H peptide solution (100 μg/mL, dissolved in 0.2 mol/L of phosphate buffer, pH 6.8) was reacted with potassium ferricyanide (10 mg/mL, 4 mL) in the EDZF-C002 thermostatic vibrator (50°C, 220 rpm) for 30 min. The reaction solution was cooled to 25 ± 1°C and precipitated using an equal volume of 100 mg/mL trichloroacetic acid for 10 min. Then, the reaction solution was centrifuged at 3000 × g for 25 min, and 1 mL of the upper solution was pipetted and reacted with 1 mg/mL of FeCl3 (1.2 mL) to produce Prussian blue (potassium ferrocyanide). The concentration of potassium ferrocyanide produced was positively correlated with the ferric reducing ability of the sample ([37]), which was determined at 700 nm using a HD-UV90 ultraviolet–visible spectrophotometer (Holder Technology Co. LTD, Weifang, China).
As described by Wu et al. ([41]), the simulative gastric digestive fluid consisted of sodium chloride (0.18 mol/L), ultrapure water (180 mL), and 0.40 mg/mL of pepsin. […] The ACE inhibition capacity and antioxidant ability of the treated BAG-2H peptides were detected and compared to those of the undigested BAG-2H peptides.

[3] = Superoxide radical quenching, pyrogallol auto-oxidation method; settings: 100 μg/mL, mean ± SD, triplicate
Method: as §1
(§2) As described by Wu et al. ([41]), the simulative gastric digestive fluid consisted of sodium chloride (0.18 mol/L), ultrapure water (180 mL), and 0.40 mg/mL of pepsin. The simulation intestinal digestive juice was composed of NaHCO3 (0.625 g/mL), bile salt (3 g/100 mL), pancreatin (0.35 mg/mL), and 180 mL ultrapure water. In a glass triangle flask, 300 mg of the antihypertensive and antioxidant BAG-2H peptides, 60 mL of ultrapure water, and 150 mL of the simulative gastric fluid were mixed thoroughly. The flask was placed at 37°C in an EDZF-C002 thermostatic vibrator with shaking rate of 140 rpm. After 90 min, 180 mL of the simulative intestinal hydrolysis fluid was added and stirred at 37°C for 2 h. To stop the hydrolysis, the digestion solution in the flask was boiled for 6 min and then cooled by running water to room temperature. The ACE inhibition capacity and antioxidant ability of the treated BAG-2H peptides were detected and compared to those of the undigested BAG-2H peptides.

[4] = Hydroxyl radical quenching, β-deoxyribose oxidation method; settings: 100 μg/mL, mean ± SD, triplicate
Method: Next, the purification of BAG-2H is a two-step process: first, BAG-2H solution (1 g/L) was subjected to ultra-filtration on an ultra-membrane (filter aperture of 220 nm, Jingfei Membrane Equipment Factory, Luzhou, China). Next, the ultra-filtrate solution (2 mL) was chromatographically purified citing the modified procedures from Li et al. ([30]). Pre-balanced G-15 gel was loaded into a HS-MG-125 chromatographic column (Huasheng Chromatography Tech. Co., Ltd., Wuxi, China). After the BAG-2H ultra-filtrate solution has completely sunk into the column plane, the gel chromatographic column was sealed and eluted using dH2O with a constant velocity of 2.4 mL/min and monitor wavelength of 220 nm. An automatic collector (BT-160I, Thirdli Collection Equipment Co., Ltd., Guangzhou, China) was used to collect the elution, and the collection tube was changed every 5 min ([34]). After 400 min, the profiles of absorbance at 220 nm against elution time were drawn, and the separation fractions were freeze-dried using the EHI-220D lyophilizer. The ACE-inhibitory, ferrous-binding, and hydroxyl radical quenching abilities of the separation fractions were detected citing the hippuric acid ([50]), […]. During screening of the separation fractions, ACE-inhibitory and hydroxyl radical quenching abilities were the primary indexes, and the amino acid sequences of the selected fraction were analyzed.
as §1, with “Comparison was conducted when the samples were replaced by glutathione (0.1 mg/mL).” left out
Physicochemical properties and functionalities of BAG-2H peptides, including antihypertension and antioxidant activity, were in silico analyzed with the AHTpin^2 and Peptide Ranker server^3 databases ([39]), respectively. […]

[5] = Ferrous solubility of ferrous chelate during simulated gastrointestinal digestion; assay type: in vitro ADME; settings: soluble ferrous by o-phenanthroline every 30 min
Method: Next, the intestinal digestive fluid was added, and the digestion was continued at pH 6.8 for 2 h in the EDZF-C002 thermostatic vibrator ([…], 175 rpm).

[6] = cited from earlier work
From the text: The Asp., Val, Tyr, Phe, and Gly in […] can effectively bind to ferrous ions ([16], [20]). The γ-carboxyl group in Asp and phenolic hydroxyl groups in Tyr and Phe can form ionic bond with ferrous ions ([17]). Ascribed to the excellent metal ion-chelating capacity, Gly is an ideal ingredient for iron or calcium supplement ([45]). In addition, the carbo ...

ACE = system: ACE; parameters: method as in 2 sources, ref 34 = [34]; doi:10.1016/j.fbio.2023.103419; 34. Zheng Y Ma J Guo Y Zhuang Y Yang Z Zhu Z . In silico screening and characterization, inhibition mechanism on ACE, and stability of antihypertensive peptides with Zn-chelating capacity identified f ||| ref 45 = [45]; PMID 38470110; doi:10.1021/acs.jafc.4c00829; 45. Martineau-Côté D Achouri A Karboune S L’Hocine L . Antioxidant and angiotensin-converting enzyme inhibitory activity of Faba bean-derived peptides after in vitro gastrointestinal digestion: insigh; settings: read-out: ACE-inhibitory IC50, cited from earlier work
[7] = Gastrointestinal stability of peptide (simulated gastric and intestinal digestion); assay type: in vitro ADME; settings: simulated gastric fluid (pepsin 0.40 mg/mL) 90 min, then intestinal fluid (pancreatin, bile salt) 2 h, 37°C; read-out retained activity; p > 0.05
Method: as §2

Caco-2 cell monolayers = assay: Ferrous transport across Caco-2 cell monolayers; assay type: in vitro ADME; settings: Caco-2 transwell, apical to basolateral, chelate 320 μg/mL, 37°C, o-phenanthroline, p < 0.05
Method: In a 24-well transwell culture plate, Caco-2 cells (0.75 × 10^6 cells/cm^2) were cultivated by Dulbecco’s modified Eagle’s medium that contained fetal bovine serum (20 g/L), streptomycin (1 μg/μL), penicillin (1 μg/μL), and neomycin (1 μg/μL) and refreshed every 48 h. After 12–14 d of incubation at 5% CO2 and 37°C, the transepithelial electrical resistance was more than 400 Ω·cm^2 and a monolayer Caco-2 cell mode was formed. Afterward, the medium was removed, and Hank’s Balanced Salt Solution was added. After 30 min of cultivation at 5% CO2 and 37°C, Hank’s Balanced Salt Solution was removed from the apical side and BAG-2H peptide-ferrous chelates (320 μg/mL) were added and then cultivated at 5% CO2 and 37°C for 150 min. Every 30 min, the o-phenanthroline method was used to quantify the ferrous amounts of cultivate solution in the basolateral side ([38]).

[8] = biological target: T1, angiotensin-I-converting enzyme (ACE) (Oryctolagus cuniculus, UniProt P12822); assay: ACE-inhibitory kinetics, Lineweaver–Burk plot; assay type: biochemical, Rabbit; settings: inhibitor 0.011–0.055 mmol/L, HHL 0.13–1.32 mmol/L, Vmax not altered, Km increased
T1 construct: Rabbit lungs ACE (0.1 U) was obtained from Sigma-Aldrich (St. Louis, MO, USA); purchased Sigma-Aldrich (St. Louis, MO, USA); host or cells: rabbit lung (tissue-derived)
T1 sequence (P12822 34-1310): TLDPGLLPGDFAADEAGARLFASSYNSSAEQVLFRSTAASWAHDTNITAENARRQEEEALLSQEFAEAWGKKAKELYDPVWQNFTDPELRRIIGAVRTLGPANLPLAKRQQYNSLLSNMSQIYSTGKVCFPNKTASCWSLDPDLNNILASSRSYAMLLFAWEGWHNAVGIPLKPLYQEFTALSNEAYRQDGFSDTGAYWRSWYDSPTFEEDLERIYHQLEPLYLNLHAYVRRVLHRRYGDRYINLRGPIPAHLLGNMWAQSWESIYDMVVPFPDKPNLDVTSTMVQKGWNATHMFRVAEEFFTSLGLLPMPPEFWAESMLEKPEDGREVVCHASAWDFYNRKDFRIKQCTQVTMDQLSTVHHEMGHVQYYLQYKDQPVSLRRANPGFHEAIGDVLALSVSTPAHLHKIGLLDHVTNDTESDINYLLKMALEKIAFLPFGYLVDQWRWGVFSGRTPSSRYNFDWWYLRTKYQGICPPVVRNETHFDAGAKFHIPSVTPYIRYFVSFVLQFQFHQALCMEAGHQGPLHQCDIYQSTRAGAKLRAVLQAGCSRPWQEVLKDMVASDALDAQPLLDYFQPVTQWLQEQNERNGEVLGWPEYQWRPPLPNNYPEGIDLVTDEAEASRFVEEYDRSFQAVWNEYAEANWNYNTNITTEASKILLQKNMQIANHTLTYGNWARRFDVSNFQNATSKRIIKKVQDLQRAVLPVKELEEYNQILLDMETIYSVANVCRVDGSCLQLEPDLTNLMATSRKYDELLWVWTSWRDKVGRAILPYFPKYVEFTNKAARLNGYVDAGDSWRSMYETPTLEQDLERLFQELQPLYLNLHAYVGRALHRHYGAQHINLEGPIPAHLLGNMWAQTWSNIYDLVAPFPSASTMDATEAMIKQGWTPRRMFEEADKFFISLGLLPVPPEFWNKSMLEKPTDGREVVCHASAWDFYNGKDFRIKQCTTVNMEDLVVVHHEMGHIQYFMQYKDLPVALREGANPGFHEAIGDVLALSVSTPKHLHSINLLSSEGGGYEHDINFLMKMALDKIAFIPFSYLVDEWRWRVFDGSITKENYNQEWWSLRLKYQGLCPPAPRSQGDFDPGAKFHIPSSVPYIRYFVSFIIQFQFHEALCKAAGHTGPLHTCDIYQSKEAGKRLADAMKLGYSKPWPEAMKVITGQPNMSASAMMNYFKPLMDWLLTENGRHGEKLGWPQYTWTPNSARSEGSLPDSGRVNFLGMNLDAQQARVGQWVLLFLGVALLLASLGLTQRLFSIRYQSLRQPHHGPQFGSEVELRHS
From the text: The hippuric acid method ([50]) was used to measure the samples’ restraining capacity against ACE citing the same procedures from Zheng et al. ([34]). The absorbance of the reaction solution at 228 nm was the hippuric acid content and was proportional to ACE activity; therefore, the restraining capacity of samples toward ACE was defined as the percentage reduction in the absorption at 228 nm between the control and sample groups. In addition, the ACE-inhibitory kinetic by BAG-2H peptides (0.011–0.055 mmol/L) was investigated employing Lineweaver–Burk plot ([36]).

[9] = biological target: T1, angiotensin-I-converting enzyme (ACE); assay: ACE restraining capacity, hippuric acid method; assay type: biochemical, Rabbit; settings: substrate HHL, absorbance 228 nm, IC50 from regression of inhibition against concentration, tests in triplicate, read-out: ACE-inhibitory activity (IC50)

Compound: N[C@@H](CCC(=O)N[C@@H](CS)C(=O)NCC(=O)O)C(=O)O [Glutathione, glutathione, reference compound]
ABTS+ scavenging activity, before gastrointestinal [1]: 79.25 ± 1.67%a | Ferric reducing ability, before gastrointestinal [2]: 0.675 ± 0.019a | Superoxide radical scavenging ability, before gastrointestinal [3]: 90.52% ± 4.97%a | ·OH scavenging activity, before gastrointestinal [4]: 95.56% ± 1.38%a

Ferrous solubility during gastric digestion (0–90 min) ([5]; simulated gastric fluid with pepsin, pH 1.9, 37°C, 175 rpm): relatively stable | Ferrous solubility during intestinal digestion (91–180 min) ([5]; simulated intestinal fluid, pH 6.8, 37°C): apparently decreased
Compound: [Cl][Fe][Cl] [ferrous chloride]

Compound: FEDPEFE [scallop skirts peptide]
Ferrous chelating ability ([6]; scallop skirts peptide): 9.39 mg/g

Compound: GCHHY
IC50 (ACE; peptide from millet bran glutelin-2): 147 µM

Stability of antioxidant activity and ACE-inhibitory capacity during gastrointestinal digestion [7]: stable during gastrointestinal digestion
Compound: PVDFAGFY

ACE-inhibitory mode [8]: competitive ACE inhibitor | IC50 [9]: 101 µM
Compound: PVDFAGFY-ferrous chelate: ferrous chelate of PVDFAGFY prepared with ferrous chloride (also: ferrous chelate)
Ferrous transmembrane absorption across Caco-2 monolayer compared with ferrous chloride (Caco-2 cell monolayers; FeCl2 0.3 mg/mL, HBSS, 150 min): higher than that of ferrous chloride | Ferrous transport across Caco-2 monolayer compared with ferrous lactate, 120–150 min (Caco-2 cell monolayers; ferrous lactate 0.3 mg/mL): better at transporting iron across the monolayer of Caco-2 cells than ferrous lactate | ABTS+ scavenging activity, before gastrointestinal [1]: 35.18% ± 1.16%c | Ferric reducing ability, before gastrointestinal ([2]; the values are: absorbance at 700 nm): 0.225 ± 0.012 | Superoxide radical scavenging ability, before gastrointestinal [3]: 69.55% | Superoxide radical scavenging ability, before gastrointestinal ([3]; listed as PVDFAGFY-Fe): 69.55% ± 3.41%b | ·OH scavenging activity, before gastrointestinal [4]: 79.37% | ·OH scavenging activity, before gastrointestinal ([4]; listed as PVDFAGFY-Fe): 79.37% ± 4.21%b

Compound: SELE [millet bran globulin peptide]
Ferrous chelating ability ([6]; millet bran globulin peptide): 7.93 mg/g

Compound: VIPTEPPHA
IC50 (ACE; peptide from Faba beans): 260 µM
